# From US8853219B2, “Compounds and compositions for cognition-enhancement, methods of making, and methods of treating” (NeuroSolis, Inc., priority 2010, dated 2014)
# Changes are numbered by the printed parent chain.
# Legend:
# [1] = Blood and brain concentrations (rats) after oral gavage; assay type: in vivo, rat; settings: for Brain Cmax (10 mg/kg po) 1 hr MCD-386 = 1.00: rat brain, relative to MCD-386
# Procedure: Long-Evans Hooded rats (Charles River: male, 250-350 g) were dosed with solutions of test compounds in PBS by oral gavage. At the desired time after dosing, the animals were anesthetized with isoflurane, and then euthanized by cervical dislocation. Blood was obtained by cardiac puncture, transferred to a 1.5 mL microcentrifuge tube containing 15U Heparin, and the plasma recovered after centrifugation. Brains were dissected, weighed, immediately chilled to 4° C., and homogenized using a PowerGen 125 homogenizer in five volumes of ice-cold 2% formic acid. Proteins were precipitated from plasma and brain homogenate with two and five volumes respectively of ice-cold 2% formic acid and clarified by centrifugation. The supernatant was ultra-filtered by centrifugation through a 3K MWCO spin column (Pall Life Sciences), following the manufacturer's instructions. The concentration of compound in the ultra-filtrate was subjected to reverse-phase liquid chromatography using a 150×2.1 mm Agilent C8 reverse-phase column on a Shimadzu Prominence LC, eluting the compounds with a gradient of 2% to 50% of acetonitrile+0.1% formic acid for compound MI-50,382, or an isocratic flow of 2% acetonitrile+0.1% formic acid for the rest of the compounds listed. The concentration of the compound in the column effluent was measured using an Applied Biosystems API-3200 triple quadrupole mass spectrometer equipped with an electrospray sample injection system. The counts of the characteristic parent and product ions of each test compound were converted to concentration units by comparison with a standard calibration curve.
# [2] = Delivery of MCD-386 in rats by iontophoresis patch versus oral gavage: plasma concentration; assay type: in vivo; settings: rat
# Procedure: Two patches were made up, consisting (in order from the outer layer to the skin contacting surface, respectively): adhesive tape (Transpore, 27 mm wide, 3M), circular stainless steel electrodes (22 mm dia) with a central hole for a stainless steel machine screw to which the electrode wire was attached, and 2 layers of 3mM CHR filter paper (Cat #3030-861, Whatman International, Ltd).
# The mid-dorsal area of a Long Evans Hooded rat (approximate weight, 320 grams), surgically prepared with a jugular vein catheter (Charles River), was shaved and the skin was then cleaned using an Electrode Prep Pad (Professional Disposables, Inc, Cat #B59800). […]
# Blood (400 μl) was withdrawn from the catheters in each rat every 30 minutes, transferred to 1.5 ml centrifuge tubes containing heparin (15 units/tube), and the plasma was separated by centrifugation from the cellular components. The plasma samples were maintained at 4 deg C. until analyzed. […]
# The ultra-filtrates were subjected to reverse-phase liquid chromatography using a 150×2.1 mm Agilent C8 reverse-phase column on a Shimadzu Prominence LC, eluting the MCD-386 with an isocratic flow of 2% acetonitrile+0.1% formic acid. The concentration of MCD-386 in the column effluent was measured using an Applied Biosystems API-3200 triple quadrupole mass spectrometer equipped with a Turbo V source (electrospray sample injection) system. […]
# rat M1 receptors = target: T1, rat M1 receptors (Rattus norvegicus, UniProt P08482); experiment: PI turnover (inositol phosphate production) in M1-CHO cells; assay type: cell-based
# T1 construct: host or cells: Chinese Hamster Ovary cells (M1-CHO)
# T1 sequence (P08482 1-460): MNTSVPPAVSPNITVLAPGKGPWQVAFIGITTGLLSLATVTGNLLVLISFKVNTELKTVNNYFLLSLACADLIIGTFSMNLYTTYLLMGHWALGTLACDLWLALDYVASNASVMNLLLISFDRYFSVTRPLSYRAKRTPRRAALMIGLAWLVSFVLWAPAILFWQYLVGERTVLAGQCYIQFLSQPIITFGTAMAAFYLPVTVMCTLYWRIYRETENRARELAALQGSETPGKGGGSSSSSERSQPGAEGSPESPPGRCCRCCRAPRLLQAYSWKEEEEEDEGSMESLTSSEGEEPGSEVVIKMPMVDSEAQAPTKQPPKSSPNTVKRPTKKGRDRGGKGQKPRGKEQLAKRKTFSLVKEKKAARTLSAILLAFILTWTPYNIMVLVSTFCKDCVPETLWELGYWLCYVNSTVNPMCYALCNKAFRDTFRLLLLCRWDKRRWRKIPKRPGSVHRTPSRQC
# Procedure: (§1) The medium was changed to 70 μL/well of inositol-free DMEM containing 2 mM glutamine, 10% FBS and 10 μCi/ml of [3H]-inositol (PE:cat #NET114A250UC), incubated overnight as above, then 100 μL of a solution of the test compound in HBSS containing 10 mM LiCl and 20 mM HEPES, pH 7.4 was added, incubation was continued for 60 min under the above conditions, and the test was stopped by removing the test compound and replacing with 100 μL of 50 mM formic acid in water at 4° C.
# rat M3 receptors = target: T2, rat M3 receptors (Rattus norvegicus, UniProt P08483); experiment: PI turnover (inositol phosphate production) in M3-CHO cells; assay type: cell-based; settings: mean Smax relative to mean Smax for carbachol (100)
# T2 construct: host or cells: Chinese Hamster Ovary cells (M3-CHO)
# T2 sequence (P08483 whole entry): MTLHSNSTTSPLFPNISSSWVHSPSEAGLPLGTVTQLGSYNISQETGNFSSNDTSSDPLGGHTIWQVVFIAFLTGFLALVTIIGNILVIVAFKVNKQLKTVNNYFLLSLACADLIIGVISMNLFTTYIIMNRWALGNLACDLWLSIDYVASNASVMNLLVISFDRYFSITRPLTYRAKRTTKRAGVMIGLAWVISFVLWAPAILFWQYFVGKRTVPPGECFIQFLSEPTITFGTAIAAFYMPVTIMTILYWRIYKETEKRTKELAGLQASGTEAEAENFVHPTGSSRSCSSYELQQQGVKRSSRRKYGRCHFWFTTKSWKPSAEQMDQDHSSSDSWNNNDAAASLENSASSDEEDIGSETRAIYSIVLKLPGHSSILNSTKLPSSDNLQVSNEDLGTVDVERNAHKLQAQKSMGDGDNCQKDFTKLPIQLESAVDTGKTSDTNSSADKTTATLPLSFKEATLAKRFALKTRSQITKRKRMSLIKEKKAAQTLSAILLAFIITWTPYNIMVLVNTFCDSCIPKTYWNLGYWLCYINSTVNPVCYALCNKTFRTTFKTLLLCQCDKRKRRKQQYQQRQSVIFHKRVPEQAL
# Procedure: as §1
# [3] = Metabolites in serum and urine of dosed rats; assay type: in vivo; settings: rat serum/plasma or urine
# Procedure: Oxadiazoles disclosed herein as well as other oxadiazoles were investigated to determine the formation of metabolites. Animals were dosed, blood taken, serum prepared, serum proteins precipitated and ultrafiltrates prepared as described in Example 6. In separate experiments, urine was collected from rats for 16-24 hours after dosing, using standard metabolic cages. The urine container and collected urine were maintained at 4° C. Urine was lyophilized, taken back into water. The ultrafiltrate was prepared by adding formic acid to a final concentration of 1% to the urine samples, then filtered through a 0.2 um nylon membrane. The ultrafiltrate was subjected to LC-MS analysis. Instead of measuring the product ions in Q3, manual Q1 scans of the liquid chromatograph were undertaken, seeking parent ions of potential metabolites of the compounds. The criteria for identifying metabolites were as follows: (1) the ion should be present in the sera or urines of dosed rats, but not in sera or urines from non-dosed rats (2) the ion should be identifiable as a metabolic derivative of the dosed compound (e.g. loss of a functional chemical moiety, addition of a hydroxyl group or a glucuronic acid moiety, etc). Metabolites were determined not to be present if no compound meeting the above criteria could be detected in serum or urine.
# rats = experiment: Muscarinic effects in vivo (salivary flow) in rats dosed orally; design: species or system rat; settings: in vivo
# [4] = tested on: pooled male human liver microsomes; experiment: Metabolism by human liver microsomes; assay type: in vitro ADME; settings: 6 hours incubation
# Procedure: (§2) Compounds were incubated with pooled male human liver microsomes (BD Biosciences, #452172) and an NADP-regenerating system in a phosphate buffer (pH 7.4) for a total of 6 hours. Aliquots were removed every 2 hours, and 1% formic acid was added to halt the reaction. Samples were centrifuged, filtered through 0.2 micron spinfilter and the amount of each compound in the supernatants was quantitated using LC/MS/MS.
# [5] = target: T3, human muscarinic M1 receptors (Homo sapiens, UniProt P11229); experiment: Stimulation of inositol phosphate production in A9L cells, human M1 (IPOne TR-FRET); assay type: cell-based; settings: huM1/A9L versus huM3/A9L
# T3 construct: host or cells: A9L cells
# T3 sequence (P11229 1-460): T1 sequence (P08482 1-460) with V5A, S254T, S309P, K320R, G337A, V413I
# Procedure: Muscarinic M1 and M3 agonist activity was evaluated by measuring the stimulation of inositol phosphate (IP) production in the presence of lithium chloride from A9L cells transfected with expression plasmids containing human muscarinic M1 and M3 receptors, respectively. The cell lines were a gift from Professor W Messer, and the methods were as described in Tejada F R et al. J. Med. Chem. 2006; 49: 7518-31 except that the assay was scaled down to run in 384 well plates, and IP was measured in the cell lysates using the non-isotopic IPOne TR-FRET assay (CIS-BIO, Inc).
# Cells were grown to 90% confluence in 384 well hi-base plates (Greiner Bio-One), compounds were added at suitable concentrations in growth medium containing 10 mM LiCL, buffered with an extra 10 mM HEPES (pH7.4), and incubated for 60 minutes at 37° C. Cells were lysed and assayed for IP following the manufacturer's instructions.
# The value for a full agonist is 100%, while partial agonists give values below 100%.
# [6] = tested on: pooled male Sprague-Dawley rat liver microsomes; experiment: Metabolism by rat liver microsomes; assay type: in vitro ADME; settings: 6 hours incubation
# Procedure: as §2, with “Sprague-Dawley rat” for “human”, “#452501)” for “#452172)”
Compound,Brain Cmax (10 mg/kg po) 1 hr MCD-386 = 1.00 [1],Bioavailability by transdermal delivery versus oral administration [2],PAMPA units (PAMPA test),Muscarinic agonist activity by PI turnover (rat M1 receptors; cell lines expressing M1 and M3 subtypes),M1/CHO PI turnover Relative Mean Smax (rat M1 receptors; mean Smax relative to mean Smax for carbachol (100)),M3/CHO PI turnover Relative Mean Smax (rat M3 receptors),Plasma concentration relative to compound 1 ([1]; after oral dosing to rats),Penetration into the brain ([1]; rats after oral dosing),Presence of metabolites (10 mg/kg po) [3],Muscarinic agonist activity in vivo (rats),Metabolism in human liver microsomes [4],Selectivity for M1 versus M3 receptors [5],Metabolism in rat liver microsomes [6]
"CCc1noc(C2CN=CNC2)n1 (stereo not shown) [MCD-386, 5-(3-ethyl-1,2,4-oxadiazol-5-yl)-1,4,5,6-tetrahydropyrimidine]",1.00,up to three times higher,0.05,,,,,,,,,,
"[2H]C([2H])([2H])c1noc(C2CCCNC2)n1 (stereo not shown) [compound 7, 3-D3-Methyl-5-(piperidin-3-yl)-1,2,4-oxadiazole]",2.16,,,relatively low,2.7,0,approximately 2.4 times,penetrated into the brain,No metabolites were identified and No,demonstrated muscarinic agonist activity in vivo,metabolized significantly less in human liver microsomes than in rat liver microsomes,,
"Cc1noc(C2=CCCN(C)C2)n1 [Compound 36, 3-methyl-5-(1-methyl-1,2,5,6-tetrahydropyridin-3-yl)-1,2,4-oxadiazole, reference compound]",,,12.75,,,,,,,,nearly completely metabolized,some selectivity for M1 versus M3 receptors,nearly completely metabolized
